Experimental data taken from patent publication US10844077B2, “Thiazolyl-containing compounds for treating proliferative diseases” (Dana-Farber Cancer Institute, Inc., priority 2014, dated 2020).
Read-outs that look alike come from different tables or passages of the source.

How the values were obtained:
Format in all cases: cell-based
kinases in BCWM.1 cells [1] = molecular target: kinases in BCWM.1 cells (Homo sapiens, UniProt Q16539); details: p38a, 1 μM, 90 min, GF
Procedure: (§1) The cells were harvested and lysed. […] Bound kinases were identified and quantitated by ACTIVX as described in Patricelli et al., Biochemistry, 2007, 46(2): 350-358. The compounds were tested in duplicates against duplicate or quadruplicate control samples.

kinases in BCWM.1 cells [2] = molecular target: kinases in BCWM.1 cells (Homo sapiens, UniProt P42338); details: PIK3CB; ATP; 1 μM, 90 min; GF
Procedure: as §1

kinases in BCWM.1 cells [3] = molecular target: kinases in BCWM.1 cells (Homo sapiens, UniProt Q96Q15); details: SMG1; ATP; 1 μM, 90 min; GF
Procedure: as §1

kinases in BCWM.1 cells [4] = molecular target: kinases in BCWM.1 cells (Homo sapiens, UniProt Q9Y2I7); details: PIP5K3; ATP; 1 μM, 90 min; GF
Chain of kinases in BCWM.1 cells (Homo sapiens, UniProt Q9Y2I7) (Q9Y2I7 2-2098 limits assumed): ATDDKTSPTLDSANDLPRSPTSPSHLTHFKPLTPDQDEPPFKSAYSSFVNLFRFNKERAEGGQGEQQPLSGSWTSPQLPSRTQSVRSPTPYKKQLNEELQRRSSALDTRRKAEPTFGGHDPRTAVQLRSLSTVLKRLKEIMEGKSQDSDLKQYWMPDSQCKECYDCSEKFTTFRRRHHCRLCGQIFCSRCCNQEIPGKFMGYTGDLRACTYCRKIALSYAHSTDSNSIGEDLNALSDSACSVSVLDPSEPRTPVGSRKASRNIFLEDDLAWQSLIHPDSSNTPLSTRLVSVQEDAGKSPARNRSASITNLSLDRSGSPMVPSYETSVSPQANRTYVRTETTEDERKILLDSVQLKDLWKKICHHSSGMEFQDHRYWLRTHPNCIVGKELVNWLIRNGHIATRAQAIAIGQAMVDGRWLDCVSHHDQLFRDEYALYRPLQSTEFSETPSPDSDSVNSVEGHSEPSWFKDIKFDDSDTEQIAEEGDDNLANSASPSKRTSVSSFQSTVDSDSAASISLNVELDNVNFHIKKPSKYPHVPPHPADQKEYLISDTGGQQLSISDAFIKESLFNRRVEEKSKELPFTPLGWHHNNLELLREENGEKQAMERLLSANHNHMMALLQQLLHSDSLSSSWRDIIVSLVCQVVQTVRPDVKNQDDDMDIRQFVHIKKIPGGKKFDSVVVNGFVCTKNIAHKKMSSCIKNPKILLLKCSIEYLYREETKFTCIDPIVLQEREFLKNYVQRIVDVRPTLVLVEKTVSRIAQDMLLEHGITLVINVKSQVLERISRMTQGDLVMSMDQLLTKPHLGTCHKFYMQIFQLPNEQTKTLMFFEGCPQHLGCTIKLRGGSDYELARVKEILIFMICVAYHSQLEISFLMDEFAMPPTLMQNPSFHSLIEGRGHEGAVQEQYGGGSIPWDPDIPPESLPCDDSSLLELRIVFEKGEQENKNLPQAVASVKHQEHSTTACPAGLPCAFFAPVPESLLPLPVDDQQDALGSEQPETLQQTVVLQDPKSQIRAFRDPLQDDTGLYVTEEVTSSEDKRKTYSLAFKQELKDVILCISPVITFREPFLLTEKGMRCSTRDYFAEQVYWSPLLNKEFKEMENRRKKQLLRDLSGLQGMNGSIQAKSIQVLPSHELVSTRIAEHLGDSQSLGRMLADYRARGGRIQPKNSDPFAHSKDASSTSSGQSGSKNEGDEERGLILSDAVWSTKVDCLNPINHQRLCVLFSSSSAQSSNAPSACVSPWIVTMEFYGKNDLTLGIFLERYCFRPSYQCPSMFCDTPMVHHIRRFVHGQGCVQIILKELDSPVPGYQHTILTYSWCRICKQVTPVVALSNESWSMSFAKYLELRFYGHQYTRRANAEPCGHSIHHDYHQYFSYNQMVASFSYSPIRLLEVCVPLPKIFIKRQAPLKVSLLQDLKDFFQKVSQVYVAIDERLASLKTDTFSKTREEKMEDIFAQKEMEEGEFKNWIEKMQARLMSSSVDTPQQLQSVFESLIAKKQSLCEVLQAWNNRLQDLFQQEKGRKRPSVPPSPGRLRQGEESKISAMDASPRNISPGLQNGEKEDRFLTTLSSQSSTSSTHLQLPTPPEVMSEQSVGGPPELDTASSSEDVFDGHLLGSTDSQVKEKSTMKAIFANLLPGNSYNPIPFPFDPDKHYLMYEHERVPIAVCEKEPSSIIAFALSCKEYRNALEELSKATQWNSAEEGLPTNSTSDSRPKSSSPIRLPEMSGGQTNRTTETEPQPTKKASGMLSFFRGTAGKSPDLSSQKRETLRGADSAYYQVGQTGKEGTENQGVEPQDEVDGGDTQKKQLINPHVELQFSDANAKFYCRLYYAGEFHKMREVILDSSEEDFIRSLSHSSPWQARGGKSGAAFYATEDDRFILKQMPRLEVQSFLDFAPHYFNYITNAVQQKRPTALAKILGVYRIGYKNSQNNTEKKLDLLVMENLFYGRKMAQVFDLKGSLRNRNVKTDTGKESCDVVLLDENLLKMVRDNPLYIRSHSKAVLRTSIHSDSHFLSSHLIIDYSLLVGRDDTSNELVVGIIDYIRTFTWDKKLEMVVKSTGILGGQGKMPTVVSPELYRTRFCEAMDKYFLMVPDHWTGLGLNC
Procedure: as §1

kinases in BCWM.1 cells [5] = molecular target: kinases in BCWM.1 cells (Homo sapiens, UniProt Q86Y07); details: VRK2; Lys2; 1 μM, 90 min; GF
Procedure: as §1

kinases in BCWM.1 cells [6] = molecular target: kinases in BCWM.1 cells (Homo sapiens, UniProt Q9UBF8); details: PI4KB; ATP; 1 μM, 90 min; GF
Chain of kinases in BCWM.1 cells (Homo sapiens, UniProt Q9UBF8) (Q9UBF8 2-816 limits assumed): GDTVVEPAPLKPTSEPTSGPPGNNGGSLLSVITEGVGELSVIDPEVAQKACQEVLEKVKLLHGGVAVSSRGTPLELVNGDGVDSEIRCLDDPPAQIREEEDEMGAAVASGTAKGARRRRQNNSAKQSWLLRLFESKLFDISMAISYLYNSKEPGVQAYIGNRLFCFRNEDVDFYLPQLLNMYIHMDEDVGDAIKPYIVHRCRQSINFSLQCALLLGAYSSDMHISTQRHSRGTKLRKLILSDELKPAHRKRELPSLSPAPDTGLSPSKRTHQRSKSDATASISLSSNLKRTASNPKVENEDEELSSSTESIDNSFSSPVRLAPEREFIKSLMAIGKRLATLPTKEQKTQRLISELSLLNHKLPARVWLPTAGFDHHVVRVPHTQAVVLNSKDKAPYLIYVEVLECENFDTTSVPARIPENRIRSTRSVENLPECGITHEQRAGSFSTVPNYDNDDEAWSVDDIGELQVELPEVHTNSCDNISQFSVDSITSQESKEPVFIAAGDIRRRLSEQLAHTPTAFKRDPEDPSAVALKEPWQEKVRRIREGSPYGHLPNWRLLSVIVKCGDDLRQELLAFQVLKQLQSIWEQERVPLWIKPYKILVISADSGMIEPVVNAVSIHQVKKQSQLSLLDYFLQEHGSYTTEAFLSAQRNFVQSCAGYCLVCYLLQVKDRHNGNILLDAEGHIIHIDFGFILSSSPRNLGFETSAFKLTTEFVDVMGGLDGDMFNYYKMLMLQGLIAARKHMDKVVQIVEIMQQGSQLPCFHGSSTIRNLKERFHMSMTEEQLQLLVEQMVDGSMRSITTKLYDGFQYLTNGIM
Procedure: as §1

kinases in BCWM.1 cells [7] = molecular target: kinases in BCWM.1 cells (Homo sapiens, UniProt O95747); details: OSR1; Lys2; 1 μM, 90 min; GF
Procedure: as §1

kinases in BCWM.1 cells [8] = molecular target: kinases in BCWM.1 cells (Homo sapiens, UniProt O15530); details: PDK1; Lys1; 1 μM, 90 min; GF
Procedure: as §1

kinases in BCWM.1 cells [9] = molecular target: kinases in BCWM.1 cells (Homo sapiens, UniProt Q9BYT3); details: STK33; Lys2; 1 μM, 90 min; GF
Procedure: as §1

kinases in BCWM.1 cells [10] = molecular target: kinases in BCWM.1 cells (Homo sapiens, UniProt O94921)
Procedure: as §1

kinases in BCWM.1 cells [11] = molecular target: kinases in BCWM.1 cells (Homo sapiens, UniProt Q8TBX8); details: PIP4K2C; ATP; 1 μM, 90 min; GF
Chain of kinases in BCWM.1 cells (Homo sapiens, UniProt Q8TBX8) (Q8TBX8 2-421 limits assumed): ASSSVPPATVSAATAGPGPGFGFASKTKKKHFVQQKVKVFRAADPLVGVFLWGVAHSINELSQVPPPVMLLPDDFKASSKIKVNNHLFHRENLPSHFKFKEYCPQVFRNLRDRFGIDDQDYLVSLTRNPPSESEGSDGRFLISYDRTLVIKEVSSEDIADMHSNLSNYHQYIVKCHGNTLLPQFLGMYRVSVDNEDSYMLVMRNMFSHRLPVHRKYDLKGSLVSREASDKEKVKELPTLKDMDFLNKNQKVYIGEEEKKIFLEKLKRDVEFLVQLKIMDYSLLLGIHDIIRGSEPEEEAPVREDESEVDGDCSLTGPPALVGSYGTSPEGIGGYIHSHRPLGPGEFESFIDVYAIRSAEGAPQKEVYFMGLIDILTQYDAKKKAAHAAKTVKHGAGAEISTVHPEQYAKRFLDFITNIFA
Procedure: as §1

kinases in BCWM.1 cells [12] = molecular target: kinases in BCWM.1 cells (Homo sapiens, UniProt Q9NRH2); details: SNRK; Lys2; 1 μM, 90 min; GF
Procedure: as §1

kinases in BCWM.1 cells [13] = molecular target: kinases in BCWM.1 cells (Homo sapiens, UniProt P12931); details: SRC; Lys1; 1 μM, 90 min; GF
Chain of kinases in BCWM.1 cells (Homo sapiens, UniProt P12931) (P12931 2-536 limits assumed): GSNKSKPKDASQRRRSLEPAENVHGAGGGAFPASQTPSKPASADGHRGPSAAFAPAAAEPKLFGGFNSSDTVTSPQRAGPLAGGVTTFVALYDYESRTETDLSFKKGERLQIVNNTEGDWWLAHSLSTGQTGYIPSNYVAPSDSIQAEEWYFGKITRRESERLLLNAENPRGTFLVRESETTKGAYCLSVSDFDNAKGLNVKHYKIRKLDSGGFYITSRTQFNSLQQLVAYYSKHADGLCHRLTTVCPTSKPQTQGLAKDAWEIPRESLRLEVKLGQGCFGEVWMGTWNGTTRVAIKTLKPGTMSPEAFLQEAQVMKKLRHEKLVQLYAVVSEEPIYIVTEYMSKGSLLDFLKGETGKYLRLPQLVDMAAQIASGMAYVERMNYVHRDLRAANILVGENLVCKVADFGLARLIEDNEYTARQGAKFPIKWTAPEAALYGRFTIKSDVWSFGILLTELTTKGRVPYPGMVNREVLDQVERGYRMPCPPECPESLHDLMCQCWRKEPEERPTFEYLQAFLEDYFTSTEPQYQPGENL
Procedure: as §1

kinases in BCWM.1 cells [14] = molecular target: kinases in BCWM.1 cells (Homo sapiens, UniProt Q9UHD2); details: TBK1; Lys1; 1 μM, 90 min; GF
Procedure: as §1

kinases in BCWM.1 cells [15] = molecular target: kinases in BCWM.1 cells (Homo sapiens, UniProt Q15208); details: NDR1; Lys2; 1 μM, 90 min; GF
Chain of kinases in BCWM.1 cells (Homo sapiens, UniProt Q15208) (Q15208 2-465 limits assumed): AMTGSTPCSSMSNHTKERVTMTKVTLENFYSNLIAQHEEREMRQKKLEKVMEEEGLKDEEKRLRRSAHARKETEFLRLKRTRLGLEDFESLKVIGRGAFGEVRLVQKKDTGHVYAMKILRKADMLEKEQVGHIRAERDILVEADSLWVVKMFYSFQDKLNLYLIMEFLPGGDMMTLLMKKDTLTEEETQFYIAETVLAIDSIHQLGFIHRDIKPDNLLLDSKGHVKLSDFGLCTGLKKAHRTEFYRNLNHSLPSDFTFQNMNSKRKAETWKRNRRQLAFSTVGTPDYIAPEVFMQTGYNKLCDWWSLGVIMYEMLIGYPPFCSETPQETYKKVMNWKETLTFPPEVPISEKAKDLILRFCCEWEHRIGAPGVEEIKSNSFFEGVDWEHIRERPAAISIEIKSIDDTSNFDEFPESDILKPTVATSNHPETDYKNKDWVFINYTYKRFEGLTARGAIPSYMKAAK
Procedure: as §1

kinases in BCWM.1 cells [16] = molecular target: kinases in BCWM.1 cells (Homo sapiens, UniProt Q8NEB9); details: PIK3C3; ATP; 1 μM, 90 min; GF
Procedure: as §1

kinases in BCWM.1 cells [17] = molecular target: kinases in BCWM.1 cells (Homo sapiens, UniProt O00750); details: PIK3C2B; ATP; 1 μM, 90 min; GF
Procedure: as §1

kinases in BCWM.1 cells [18] = molecular target: kinases in BCWM.1 cells (Homo sapiens, UniProt Q8TDX7); details: NEK7; Lys1; 1 μM, 90 min; GF
Procedure: as §1

kinases in BCWM.1 cells [19] = molecular target: kinases in BCWM.1 cells (Homo sapiens, UniProt Q9UL54); details: TAO2; Lys2; 1 μM, 90 min; GF
Procedure: as §1

kinases in BCWM.1 cells [20] = molecular target: kinases in BCWM.1 cells (Homo sapiens, UniProt Q58A45); details: PAN3; Protein Kinase Domain; 1 μM, 90 min; GF
Procedure: as §1

kinases in BCWM.1 cells [21] = molecular target: kinases in BCWM.1 cells (Homo sapiens, UniProt P21127); details: PITSLRE; Lys2; 1 μM, 90 min; GF
Procedure: as §1

kinases in BCWM.1 cells [22] = molecular target: kinases in BCWM.1 cells (Homo sapiens, UniProt Q9UBS0); details: p70S6Kb; Lys2; 1 μM, 90 min; GF
Procedure: as §1

kinases in BCWM.1 cells [23] = molecular target: kinases in BCWM.1 cells (Homo sapiens, UniProt O43318); details: TAK1; Lys2; 1 μM, 90 min; GF
Procedure: as §1

kinases in BCWM.1 cells [24] = molecular target: kinases in BCWM.1 cells (Homo sapiens, UniProt Q96SB4); details: SRPK1; Lys2; 1 μM, 90 min; GF
Procedure: as §1

kinases in BCWM.1 cells [25] = molecular target: kinases in BCWM.1 cells (Homo sapiens, UniProt Q9UKI8); details: TLK1; Lys2; 1 μM, 90 min; GF
Procedure: as §1

kinases in BCWM.1 cells [26] = molecular target: kinases in BCWM.1 cells (Homo sapiens, UniProt P30291); details: Wee1; Lys2; 1 μM, 90 min; GF
Procedure: as §1

kinases in BCWM.1 cells [27] = molecular target: kinases in BCWM.1 cells (Homo sapiens, UniProt Q9Y2H1); details: NDR2; Lys2; 1 μM, 90 min; GF
Procedure: as §1

kinases in BCWM.1 cells [28] = molecular target: kinases in BCWM.1 cells (Homo sapiens, UniProt P51812); details: Lys2, 1 μM, 90 min, GF
Procedure: as §1

kinases in BCWM.1 cells [29] = molecular target: kinases in BCWM.1 cells (Homo sapiens, UniProt P51955); details: NEK2; Lys2; 1 μM, 90 min; GF
Procedure: as §1

Chain of kinases in BCWM.1 cells (Homo sapiens, UniProt Q16539) (Q16539 2-360 limits assumed): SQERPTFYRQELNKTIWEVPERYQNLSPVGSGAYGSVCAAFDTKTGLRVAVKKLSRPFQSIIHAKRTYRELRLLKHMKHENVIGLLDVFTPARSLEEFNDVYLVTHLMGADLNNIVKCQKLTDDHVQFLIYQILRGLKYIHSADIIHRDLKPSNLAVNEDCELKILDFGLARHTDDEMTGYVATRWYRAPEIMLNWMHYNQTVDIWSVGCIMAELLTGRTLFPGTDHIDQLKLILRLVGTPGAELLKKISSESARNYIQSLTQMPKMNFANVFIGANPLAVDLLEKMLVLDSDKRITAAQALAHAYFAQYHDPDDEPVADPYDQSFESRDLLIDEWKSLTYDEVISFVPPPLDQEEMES

C=CC(=O)N1CC[C@H](Nc2nccc(Nc3ncc(C(=O)Nc4c(C)cccc4C)s3)n2)C1 [Example I-3]
% change of MS signal compared to control sample (kinases in BCWM.1 cells [1]; Lys2): 70%
% change of MS signal compared to control sample (kinases in BCWM.1 cells [1]; Protein Kinase Domain): 67.9%
% change of MS signal compared to control sample (kinases in BCWM.1 cells [2]): 39.9%
% change of MS signal compared to control sample (kinases in BCWM.1 cells [3]): −36.7%
% change of MS signal compared to control sample (kinases in BCWM.1 cells [4]): −4.6%
% change of MS signal compared to control sample (kinases in BCWM.1 cells [5]): 5.7%
% change of MS signal compared to control sample (kinases in BCWM.1 cells [6]): −4.1%
% change of MS signal compared to control sample (kinases in BCWM.1 cells [7]): 4%
% change of MS signal compared to control sample (kinases in BCWM.1 cells [8]): −3.5%
% change of MS signal compared to control sample (kinases in BCWM.1 cells [9]): 11.8%
% change of MS signal compared to control sample (kinases in BCWM.1 cells [10]): −6.6%
% change of MS signal compared to control sample (kinases in BCWM.1 cells [11]): 27%
% change of MS signal compared to control sample (kinases in BCWM.1 cells [12]): 40.2%
% change of MS signal compared to control sample (kinases in BCWM.1 cells [13]): 96.7%
% change of MS signal compared to control sample (kinases in BCWM.1 cells [14]): −1.6%
% change of MS signal compared to control sample (kinases in BCWM.1 cells [15]): −5.5%
% change of MS signal compared to control sample (kinases in BCWM.1 cells [16]): −0.8%
% change of MS signal compared to control sample (kinases in BCWM.1 cells [17]): 39.1%
% change of MS signal compared to control sample (kinases in BCWM.1 cells [18]): −14.7%
% change of MS signal compared to control sample (kinases in BCWM.1 cells [19]): 8%
% change of MS signal compared to control sample (kinases in BCWM.1 cells [20]): 2.5%
% change of MS signal compared to control sample (kinases in BCWM.1 cells [21]): −8.6%
% change of MS signal compared to control sample (kinases in BCWM.1 cells [22]): 6.8%
% change of MS signal compared to control sample (kinases in BCWM.1 cells [23]): −2.5%
% change of MS signal compared to control sample (kinases in BCWM.1 cells [24]): −16.8%
% change of MS signal compared to control sample (kinases in BCWM.1 cells [25]): −6.9%
% change of MS signal compared to control sample (kinases in BCWM.1 cells [26]): −6.5%
% change of MS signal compared to control sample (kinases in BCWM.1 cells [27]): −9.6%
% change of MS signal compared to control sample (kinases in BCWM.1 cells [28]; RSK2 domain1): −15.5%
% change of MS signal compared to control sample (kinases in BCWM.1 cells [28]; RSK2 domain2): −16.5%
% change of MS signal compared to control sample (kinases in BCWM.1 cells [29]): 0.9%

CCC(=O)N1CC[C@H](Nc2nccc(Nc3ncc(C(=O)Nc4c(C)cccc4C)s3)n2)C1 [Example I-9]
% change of MS signal compared to control sample (kinases in BCWM.1 cells [1]; Lys2): 9.8%
% change of MS signal compared to control sample (kinases in BCWM.1 cells [1]; Protein Kinase Domain): 8.7%
% change of MS signal compared to control sample (kinases in BCWM.1 cells [2]): 18.5%
% change of MS signal compared to control sample (kinases in BCWM.1 cells [3]): −1%
% change of MS signal compared to control sample (kinases in BCWM.1 cells [4]): −4.6%
% change of MS signal compared to control sample (kinases in BCWM.1 cells [5]): −1.6%
% change of MS signal compared to control sample (kinases in BCWM.1 cells [6]): −3.1%
% change of MS signal compared to control sample (kinases in BCWM.1 cells [7]): 13.9%
% change of MS signal compared to control sample (kinases in BCWM.1 cells [8]): −6.6%
% change of MS signal compared to control sample (kinases in BCWM.1 cells [9]): 16.1%
% change of MS signal compared to control sample (kinases in BCWM.1 cells [10]): −3.1%
% change of MS signal compared to control sample (kinases in BCWM.1 cells [11]): −3.9%
% change of MS signal compared to control sample (kinases in BCWM.1 cells [12]): 30.1%
% change of MS signal compared to control sample (kinases in BCWM.1 cells [13]): 86.1%
% change of MS signal compared to control sample (kinases in BCWM.1 cells [14]): 10.8%
% change of MS signal compared to control sample (kinases in BCWM.1 cells [15]): 2.8%
% change of MS signal compared to control sample (kinases in BCWM.1 cells [16]): −9.4%
% change of MS signal compared to control sample (kinases in BCWM.1 cells [17]): 12.7%
% change of MS signal compared to control sample (kinases in BCWM.1 cells [18]): 8%
% change of MS signal compared to control sample (kinases in BCWM.1 cells [19]): 11.5%
% change of MS signal compared to control sample (kinases in BCWM.1 cells [20]): 4%
% change of MS signal compared to control sample (kinases in BCWM.1 cells [21]): −0.6%
% change of MS signal compared to control sample (kinases in BCWM.1 cells [22]): 3.1%
% change of MS signal compared to control sample (kinases in BCWM.1 cells [23]): 1%
% change of MS signal compared to control sample (kinases in BCWM.1 cells [24]): −0.4%
% change of MS signal compared to control sample (kinases in BCWM.1 cells [25]): −2.3%
% change of MS signal compared to control sample (kinases in BCWM.1 cells [26]): 8.6%
% change of MS signal compared to control sample (kinases in BCWM.1 cells [27]): 2.9%
% change of MS signal compared to control sample (kinases in BCWM.1 cells [28]; RSK2 domain1): −8.4%
% change of MS signal compared to control sample (kinases in BCWM.1 cells [28]; RSK2 domain2): 1.6%
% change of MS signal compared to control sample (kinases in BCWM.1 cells [29]): 4.3%
